Six compounds from patent US6713056B1, “Combined preparation for the treatment of neoplasic diseases or of infectious diseases” (I.D.M. Immuno-Designed Molecules, priority 1998, dated 2004) can be followed below.

One test deals with solid carcinoma. Nature of the test: Mice bearing solid carcinoma: apoptosis-inducing drug plus monocyte derived cells. Type of test: in vivo, C57B16 mice. To be noted: drug intraperitoneally, 24 h later 0.1 million monocyte derived cells in tumor periphery; seen only after combined treatment. The protocol:
7) C57B16 mice bearing solid carcinoma are injected intraperitonealy with a drug inducing apoptosis (1 mg mitomycin C or 0.1 mg sodium butyrate). After 24 h, mice are injected with 0.1 million monocyte derived cells in tumor periphery. […] In another protocol, carcinoma cells are treated in vitro with 0.01 mM sodium butyrate, and then submitted to phagocytosis by murine monocyte derived cells.

Test [1] deals with human carcinoma solid tumors. Nature of the test: Nude mice with human carcinoma solid tumors: cytotoxic drugs, then activated human macrophages, then the same drugs. The format is in vivo. To be noted: after macrophage injection; drugs used alone or in combination. An excerpt: 2) Nude mice inoculated with human carcinoma solid tumors are initially treated with cytotoxic drugs (Adriamycin, Etretinate, Taxotere), used alone or in combination.

Test [2] relates to 16R-OV1/DDP human ovary cancer cell line. Put plainly: Survival of cisplatin-resistant ovary cancer cells grown with MAK for 24 hours, then with cisplatin (FIG. 3). The format is cell-based. Particulars: cisplatin alone at maximal dose 10^-3 M. The procedure: The percentage of tumor cell survival is measured according to the method described in “Feasibility of drug screening with panels of human tumor cell lines using a microculture tetrazolium assay” (Alley M. C., Scudiero D. A., Monks A., et al.; Cancer Res., 1988, 48: 489-501), and is plotted against the dose of cisplatin (abscissa) in the test tube (molar concentration).
FIG. 3 represents the percentage of cellular survival as a function of cisplatin concentration (M).
The curve with hollow circles corresponds to the use of cisplatin alone.
The plain curve corresponds to the use of MAK alone.
The curve with black squares corresponds to the use of the combination of MAK followed by cisplatin.
The curve with hollow triangles corresponds to the theoretical additive curve of a treatment with MAK alone and a treatment with cisplatin alone.
16R-OV1/DDP human ovary cancer cell line was rendered resistant to cisplatinum by continuous exposure to increasing concentrations of cisplatin (Fajac A., et al. Cisplatin induced apoptosis and p.53 gene status in a cisplatin resistant human ovarian carcinoma cell line. Int. J. Cancer 68, 67-74, 1996). The cells are grown at 37° C., 5% CO2 in RPMI 1640 medium in the presence of activated human macrophages (MAK) during 24 hours and then with cisplatin at increasing concentrations. […]

Each structure is given as a SMILES string.

On to `CCCC(=O)[O-].[Na+]` [sodium butyrate], for which the “tumor outcome after combined treatment” value with solid carcinoma was “Tumor regression and protection against further tumor challenge”.

Regarding `CO[C@@]12[C@H](COC(N)=O)C3=C(C(=O)C(C)=C(N)C3=O)N1C[C@@H]1N[C@@H]12` [mitomycin C], the “tumor outcome after combined treatment” value in the test with solid carcinoma is “Tumor regression and protection against further tumor challenge”.

On to `COc1cccc2c1C(=O)c1c(O)c3c(c(O)c1C2=O)C[C@@](O)(C(=O)CO)C[C@@H]3O[C@H]1C[C@H](N)[C@H](O)[C@H](C)O1` [Adriamycin], for which, in test [1], the “effect of second treatment with the same cytotoxic drugs (subcutaneous tumor size)” value (“effect of second treatment” below) is “further antitumoral effect”.

Turning to `N.N.[Cl][Pt][Cl]` [Cisplatin, cisplatin], the inhibition of survival in test [2] came out at 35%.

With `CCOC(=O)/C=C(C)/C=C/C=C(C)/C=C/c1c(C)cc(OC)c(C)c1C` [Etretinate], in test [1], the “effect of second treatment” value is “further antitumoral effect”.

Regarding `CC(=O)O[C@@]12CO[C@@H]1C[C@H](O)[C@@]1(C)C(=O)[C@H](O)C3=C(C)[C@@H](OC(=O)[C@H](O)[C@@H](NC(=O)OC(C)(C)C)c4ccccc4)C[C@@](O)([C@@H](OC(=O)c4ccccc4)[C@H]21)C3(C)C` [Taxotere], the “effect of second treatment” value in test [1] is listed as “further antitumoral effect”.
